Experimental findings from patent US7928140B2, “Benzothiazole PI3 kinase modulators for cancer treatment” (Amgen Inc., priority 2007, dated 2011) are described below.

For one experiment, the target named is T1, PI3K α (Homo sapiens, UniProt P42336).
T1 construct: Full length p110 subunits of PI3K α, β and δ, N-terminally labeled with polyHis tag; polyHis (N); made in house; host or cells: Sf9 insect cells (baculovirus)
As to the kind of experiment: In vitro PI3 kinase enzyme assay (alpha), ATP loss, bioluminescence.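 Note: purified p110α/p85 heterodimer acting on PtdIns(4,5)P2 at room temperature, remaining ATP read by luminescence, inhibition scaled between compound-free wells with and without enzyme.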 The format is biochemical. Conditions: read-out: PI3Kα ATP loss IC50.

Another experiment addresses T2, PI3K β (Homo sapiens, UniProt P42338).
T2 construct: Full length p110 subunits of PI3K α, β and δ, N-terminally labeled with polyHis tag; polyHis (N); made in house; host or cells: Sf9 insect cells (baculovirus)
Description: In vitro PI3 kinase enzyme assay (beta), ATP loss, bioluminescence.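 Note: purified p110β/p85 heterodimer with PtdIns(4,5)P2 as acceptor, incubated at room temperature, leftover ATP read by luminescence, inhibition scaled to compound-free wells with and without enzyme.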 The class given is biochemical. Conditions: read-out: PI3Kβ ATP loss IC50.

The structures appear in SMILES notation. A value given as a limit tells only on which side of the number the result lay.

T1 sequence (P42336 whole entry, species assumed): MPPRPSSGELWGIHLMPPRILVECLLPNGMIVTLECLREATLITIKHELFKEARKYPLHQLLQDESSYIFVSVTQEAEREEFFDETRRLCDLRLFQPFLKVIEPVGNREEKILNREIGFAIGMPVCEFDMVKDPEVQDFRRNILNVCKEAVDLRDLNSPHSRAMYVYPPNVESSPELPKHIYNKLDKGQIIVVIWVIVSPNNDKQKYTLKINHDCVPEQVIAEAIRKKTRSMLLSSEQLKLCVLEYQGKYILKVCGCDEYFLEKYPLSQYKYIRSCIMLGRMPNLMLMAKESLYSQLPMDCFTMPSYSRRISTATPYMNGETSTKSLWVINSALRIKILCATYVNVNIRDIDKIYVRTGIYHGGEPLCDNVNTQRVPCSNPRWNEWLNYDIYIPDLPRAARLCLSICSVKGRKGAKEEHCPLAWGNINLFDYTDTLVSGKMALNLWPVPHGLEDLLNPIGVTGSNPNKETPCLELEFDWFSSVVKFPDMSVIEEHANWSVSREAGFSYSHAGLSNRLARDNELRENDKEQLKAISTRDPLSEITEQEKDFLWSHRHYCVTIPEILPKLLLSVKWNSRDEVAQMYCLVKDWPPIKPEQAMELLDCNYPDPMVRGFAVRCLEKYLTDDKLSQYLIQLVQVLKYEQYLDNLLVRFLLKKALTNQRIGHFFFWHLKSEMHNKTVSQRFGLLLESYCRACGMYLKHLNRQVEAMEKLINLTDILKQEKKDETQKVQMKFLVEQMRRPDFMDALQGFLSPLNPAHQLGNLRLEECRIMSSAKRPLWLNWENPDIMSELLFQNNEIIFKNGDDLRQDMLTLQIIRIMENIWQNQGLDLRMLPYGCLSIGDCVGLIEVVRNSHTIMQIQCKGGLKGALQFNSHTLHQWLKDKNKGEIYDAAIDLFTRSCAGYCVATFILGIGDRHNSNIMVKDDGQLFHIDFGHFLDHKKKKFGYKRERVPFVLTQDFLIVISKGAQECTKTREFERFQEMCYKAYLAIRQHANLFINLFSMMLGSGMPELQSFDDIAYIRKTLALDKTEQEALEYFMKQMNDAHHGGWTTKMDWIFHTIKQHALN
T1 sequence (P27986 whole entry partner, species assumed): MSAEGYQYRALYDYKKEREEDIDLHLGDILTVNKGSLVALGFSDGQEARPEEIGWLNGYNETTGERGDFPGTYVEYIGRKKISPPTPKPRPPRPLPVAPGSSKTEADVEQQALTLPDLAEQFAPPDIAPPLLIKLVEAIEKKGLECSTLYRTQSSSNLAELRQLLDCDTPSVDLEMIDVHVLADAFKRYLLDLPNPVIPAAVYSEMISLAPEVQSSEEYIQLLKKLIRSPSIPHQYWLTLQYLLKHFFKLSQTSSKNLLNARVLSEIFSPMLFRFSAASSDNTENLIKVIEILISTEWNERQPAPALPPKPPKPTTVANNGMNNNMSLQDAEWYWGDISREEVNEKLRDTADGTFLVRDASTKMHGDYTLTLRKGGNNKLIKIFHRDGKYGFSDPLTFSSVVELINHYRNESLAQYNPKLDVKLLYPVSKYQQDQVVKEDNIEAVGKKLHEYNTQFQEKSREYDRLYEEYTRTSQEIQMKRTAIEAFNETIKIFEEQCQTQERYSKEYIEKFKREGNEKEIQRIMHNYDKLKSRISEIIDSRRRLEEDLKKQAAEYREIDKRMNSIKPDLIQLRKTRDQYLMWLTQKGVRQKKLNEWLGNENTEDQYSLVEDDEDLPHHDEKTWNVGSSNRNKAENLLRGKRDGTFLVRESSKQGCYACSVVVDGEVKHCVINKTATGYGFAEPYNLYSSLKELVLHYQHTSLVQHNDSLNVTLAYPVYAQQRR
T2 sequence (P42338 whole entry): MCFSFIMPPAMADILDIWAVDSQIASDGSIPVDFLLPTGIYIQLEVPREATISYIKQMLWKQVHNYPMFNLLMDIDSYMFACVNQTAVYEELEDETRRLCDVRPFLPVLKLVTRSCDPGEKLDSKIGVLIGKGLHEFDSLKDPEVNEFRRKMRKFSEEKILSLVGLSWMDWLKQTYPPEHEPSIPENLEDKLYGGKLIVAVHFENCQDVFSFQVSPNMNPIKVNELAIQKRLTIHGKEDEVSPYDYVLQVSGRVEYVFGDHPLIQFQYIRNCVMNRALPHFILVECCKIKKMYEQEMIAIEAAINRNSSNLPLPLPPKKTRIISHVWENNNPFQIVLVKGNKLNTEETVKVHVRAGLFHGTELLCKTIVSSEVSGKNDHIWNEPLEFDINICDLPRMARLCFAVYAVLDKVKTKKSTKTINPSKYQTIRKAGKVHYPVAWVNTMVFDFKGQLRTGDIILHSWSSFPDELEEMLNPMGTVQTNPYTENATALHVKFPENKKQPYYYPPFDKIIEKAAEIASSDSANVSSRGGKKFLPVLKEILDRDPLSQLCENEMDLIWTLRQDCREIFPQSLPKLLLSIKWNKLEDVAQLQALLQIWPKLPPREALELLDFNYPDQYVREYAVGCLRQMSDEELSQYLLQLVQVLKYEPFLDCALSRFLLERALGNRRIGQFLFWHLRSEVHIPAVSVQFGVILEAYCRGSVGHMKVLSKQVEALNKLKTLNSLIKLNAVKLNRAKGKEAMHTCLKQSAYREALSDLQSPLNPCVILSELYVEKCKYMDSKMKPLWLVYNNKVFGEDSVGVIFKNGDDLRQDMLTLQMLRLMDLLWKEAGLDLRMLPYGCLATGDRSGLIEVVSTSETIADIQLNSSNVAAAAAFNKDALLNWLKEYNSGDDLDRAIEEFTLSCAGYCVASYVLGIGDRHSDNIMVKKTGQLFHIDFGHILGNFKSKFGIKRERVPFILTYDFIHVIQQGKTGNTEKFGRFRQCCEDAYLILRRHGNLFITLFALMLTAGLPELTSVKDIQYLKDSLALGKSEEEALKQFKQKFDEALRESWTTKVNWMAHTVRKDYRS
T2 sequence (P27986 whole entry partner): as the sequence (P27986 whole entry partner, species assumed) above

The IC50 is the concentration that gives 50% inhibition. In the case of `Cc1ccc(S(=O)(=O)Nc2nnc(-c3ccc4nc(N)sc4c3)o2)cc1` [Example 165, N-(5-(2-Aminobenzo[d]thiazol-6-yl)-1,3,4-oxadiazol-2-yl)-4-methylbenzenesulfonamide], the 50% inhibitory concentration (IC50) on PI3K α is 196 nM; on PI3K β, 170 nM.
For `CC(=O)Nc1nc2ccc(-c3ccnc(Sc4ccc(Br)cc4)n3)cc2s1` [Example 139, N-(6-(2-((4-bromophenyl)sulfanyl)-4-pyrimidinyl)-1,3-benzothiazol-2-yl)acetamide] the same measures were 80.7 nM and 1050 nM.
On the same counts, the results for `CC(=O)Nc1nc2ccc(-c3ccnc(OCCCCO)n3)cc2s1` [Example 103, N-(6-(2-(4-hydroxybutoxy)-4-pyrimidinyl)-1,3-benzothiazol-2-yl)acetamide] are 727 nM and more than 40000 nM.
For `CC(=O)Nc1nc2ccc(-c3cnc(Cl)c(OC(C)C#N)c3)cc2s1` (centres unmarked) [Example 290, N-(6-(6-chloro-5-(1-cyanoethoxy)pyridin-3-yl)benzo[d]thiazol-2-yl)acetamide] the same measures were 111 nM and 747 nM.
As for `CC(=O)Nc1nc2ccc(-c3ccnc(Sc4cc(C)cc(C)c4)n3)cc2s1` [Example 149, N-(6-(2-((3,5-dimethylphenyl)sulfanyl)-4-pyrimidinyl)-1,3-benzothiazol-2-yl)acetamide], the IC50 on PI3K α came to 186 nM; on PI3K β, 387 nM.
On the same counts, the results for `COc1cccc(Sc2nccc(-c3ccc4nc(NC(C)=O)sc4c3)n2)c1` [Example 41, N-(6-(2-((3-methoxyphenyl)sulfanyl)-4-pyrimidinyl)-1,3-benzothiazol-2-yl)acetamide] are 192 nM and 126 nM.
Take `COc1cccc(-c2cccc3nc(NC(C)=O)sc23)c1` [Example 96, N-(7-(3-methoxyphenyl)-1,3-benzothiazol-2-yl)acetamide]: the results for the IC50 at PI3K α and at PI3K β were 1680 nM and more than 40000 nM, respectively.
On the same counts, the results for `CC(=O)Nc1nc2ccc(-c3cccc(N(C)S(=O)(=O)c4ccccc4F)n3)cc2s1` [Example 226, N-(6-(6-(2-fluoro-N-methylphenylsulfonamido)pyridin-2-yl)benzo[d]thiazol-2-yl)acetamide] are 161 nM and 576 nM.
On the same counts, the results for `CC(=O)Nc1nc2ccc(-c3ccnc(Sc4ccc(C)cc4C)n3)cc2s1` [Example 122, N-(6-(2-((2,4-dimethylphenyl)sulfanyl)-4-pyrimidinyl)-1,3-benzothiazol-2-yl)acetamide] are 19.6 nM and 260 nM.
For `Nc1nc2ccc(-c3cccc(NS(=O)(=O)c4ccccc4F)n3)cc2s1` [Example 72, N-(6-(2-amino-1,3-benzothiazol-6-yl)-2-pyridinyl)-2-fluorobenzenesulfonamide] the same measures were 2270 nM and 1600 nM.
Turning to `COCCOCOc1cc(-c2ccc3nc(NC(C)=O)sc3c2)cnc1C(F)(F)F` [Example 293, N-(6-(5-((2-methoxyethoxy)methoxy)-6-(trifluoromethyl)pyridin-3-yl)benzo[d]thiazol-2-yl)acetamide], the results for the IC50 on PI3K α and on PI3K β were 211 nM and more than 40000 nM, respectively.
`CC(=O)Nc1nc2ccc(-c3ccnc(N(C)S(=O)(=O)c4ccc(C)cc4)c3)cc2s1` [Example 215, N-(6-(2-(N,4-dimethylphenylsulfonamido)pyridin-4-yl)benzo[d]thiazol-2-yl)acetamide]: the values for the IC50 at PI3K α and at PI3K β were 438 nM and 450 nM, respectively.
For `CC(=O)Nc1nc2ccc(-c3ccnc(OCCCO)n3)cc2s1` [Example 102, N-(6-(2-(3-hydroxypropoxy)-4-pyrimidinyl)-1,3-benzothiazol-2-yl)acetamide] the same measures were 664 nM and more than 40000 nM.
In the case of `CC(=O)Nc1nc2ccc(-c3ccnc(OCc4ccc5[nH]ccc5c4)n3)cc2s1` [Example 24, N-(6-(2-(1H-indol-5-ylmethoxy)-4-pyrimidinyl)-1,3-benzothiazol-2-yl)acetamide], the IC50 was 8030 nM at PI3K α and 8860 nM at PI3K β.
For `CC(=O)Nc1nc2ccc(-c3cncc(N(C)S(=O)(=O)c4ccc(F)cc4)c3)cc2s1` [Example 219, N-(6-(5-(4-fluoro-N-methylphenylsulfonamido)pyridin-3-yl)benzo[d]thiazol-2-yl)acetamide] the same measures were 375 nM and 2930 nM.
On the same counts, the results for `COc1ccc(S(=O)(=O)Nc2cc(-c3ccc4nc(NC(C)C)sc4c3)cnc2Cl)cc1` [Example 305, N-(2-chloro-5-(2-((1-methylethyl)amino)-1,3-benzothiazol-6-yl)-3-pyridinyl)-4-methoxybenzenesulfonamide] are 58.9 nM and 224 nM.
For `CC(=O)Nc1nc2ccc(-c3ccnc(Sc4ccc(Cl)cc4)n3)cc2s1` [Example 138, N-(6-(2-((4-chlorophenyl)sulfanyl)-4-pyrimidinyl)-1,3-benzothiazol-2-yl)acetamide] the same measures were 69.9 nM and 2880 nM.
As to `CC(=O)Nc1nc2ccc(-c3ccnc(N4CCCC4c4ccccc4C)n3)cc2s1` (racemic) [Example 262, N-(6-(2-(2-o-tolylpyrrolidin-1-yl)pyrimidin-4-yl)benzo[d]thiazol-2-yl)acetamide], the concentration for half-maximal inhibition (IC50) at PI3K α was found to be 1560 nM; at PI3K β, 777 nM.
Consider `CC(C)(C)OC(=O)Nc1nc2ccc(-c3nnc(NCc4ccccc4)o3)cc2s1` [Example 169, tert-Butyl 6-(5-(benzylamino)-1,3,4-oxadiazol-2-yl)benzo[d]thiazol-2-ylcarbamate], for which the half-inhibitory concentration (IC50) on PI3K α amounted to 4240 nM; at PI3K β, 2690 nM.
For `CC(=O)Nc1nc2ccc(-c3cncc(OCCN4CCOC4=O)c3)cc2s1` [Example 232, N-(6-(5-(2-(2-oxooxazolidin-3-yl)ethoxy)pyridin-3-yl)benzo[d]thiazol-2-yl)acetamide] the same measures were 837 nM and 7440 nM.
For the molecule `CC(=O)Nc1nc2ccc(-c3cncc(OCCN4CCCCCC4)c3)cc2s1` [Example 234, N-(6-(5-(2-(azepan-1-yl)ethoxy)pyridin-3-yl)benzo[d]thiazol-2-yl)acetamide], the figures for the 50% inhibitory concentration (IC50) at PI3K α and on PI3K β were 2490 nM and 9980 nM, respectively.
As for `COc1ccccc1S(=O)(=O)c1cccc(-c2ccc3nc(NC(C)=O)sc3c2)n1` [Example 70, N-(6-(6-((2-methoxyphenyl)sulfonyl)-2-pyridinyl)-1,3-benzothiazol-2-yl)acetamide], the IC50 at PI3K α turned out to be 285 nM; at PI3K β, 1540 nM.
On the same counts, the results for `CC(=O)Nc1nc2ccc(-c3ccnc(N(C)S(=O)(=O)c4ccc5ncccc5c4)n3)cc2s1` [Example 204, N-(6-(2-(N-methylquinoline-6-sulfonamido)pyrimidin-4-yl)benzo[d]thiazol-2-yl)acetamide] are 354 nM and 404 nM.
For `CC(=O)Nc1nc2ccc(-c3ccnc(Nc4ccccn4)n3)cc2s1` [Example 264, N-(6-(2-(pyridin-2-ylamino)pyrimidin-4-yl)benzo[d]thiazol-2-yl)acetamide] the same measures were 2490 nM and more than 40000 nM.
For `CC(=O)Nc1nc2ccc(-c3csc(S(=O)(=O)c4ccccc4F)n3)cc2s1` [Example 63, N-(6-(2-(2-fluorophenylsulfonyl)thiazol-4-yl)benzo[d]thiazol-2-yl)acetamide] the same measures were 556 nM and 4690 nM.
With `CC(=O)Nc1nc2ccc(-c3cnc4c(c3)NC(C)(C)N4C)cc2s1` [Example 157, N-(6-(2,2,3-trimethyl-2,3-dihydro-1H-imidazo[4,5-b]pyridin-6-yl)benzo[d]thiazol-2-yl)acetamide], the half-inhibitory concentration (IC50) was 664 nM on PI3K α and more than 40000 nM at PI3K β.
For `CC(C)(O)C(=O)Nc1nc2ccc(-c3ccnc(OCc4ccccc4)n3)cc2s1` [Example 55, N-(6-(2-(benzyloxy)-4-pyrimidinyl)-1,3-benzothiazol-2-yl)-2-hydroxy-2-methylpropanamide] the same measures were 26700 nM and 7750 nM.
For `CC(=O)Nc1nc2ccc(-c3cnc(OC(F)F)cc3C)cc2s1` [Example 250, N-(6-(6-(difluoromethoxy)-4-methylpyridin-3-yl)benzo[d]thiazol-2-yl)acetamide] the same measures were 11900 nM and 27500 nM.
For `CNc1ncc(-c2ccc3nc(NC(C)=O)sc3c2)cc1N` [Example 152, N-(6-(5-amino-6-(methylamino)pyridin-3-yl)benzo[d]thiazol-2-yl)acetamide] the same measures were 275 nM and 864 nM.
For the molecule `CC(=O)Nc1nc2ccc(-c3cncc(OC(C)CN4CCOCC4)c3)cc2s1` (centres unmarked) [Example 231, N-(6-(5-(1-morpholinopropan-2-yloxy)pyridin-3-yl)benzo[d]thiazol-2-yl)acetamide], the values for the IC50 at PI3K α and on PI3K β were 637 nM and 15700 nM, respectively.
For the molecule `CC(=O)Nc1nc2ccc(-c3ccc(OC(F)F)nc3)cc2s1` [Example 249, N-(6-(6-(difluoromethoxy)pyridin-3-yl)benzo[d]thiazol-2-yl)acetamide], the concentration for half-maximal inhibition (IC50) turned out to be 717 nM at PI3K α and 8110 nM on PI3K β.
For `CC(C)(C)OC(=O)Nc1nc2ccc(-c3nnc(N(Cc4ccccc4)S(C)(=O)=O)o3)cc2s1` [Example 170, tert-Butyl 6-(5-(N-benzylmethan-9-ylsulfonamido)-1,3,4-oxadiazol-2-yl)benzo[d]thiazol-2-ylcarbamate] the same measures were 3910 nM and 4760 nM.
For the molecule `COc1ccc(-c2cccc3nc(NC(C)=O)sc23)cc1` [Example 95, N-(7-(4-Methoxyphenyl)benzo[d]thiazol-2-yl)acetamide], the half-inhibitory concentration (IC50) on PI3K α is 6540 nM; at PI3K β, more than 40000 nM.
On the same counts, the results for `CC(=O)Nc1nc2ccc(-c3ccnc(OC4CCN(C)CC4)n3)cc2s1` [Example 31, N-(6-(2-((1-methyl-4-piperidinyl)oxy)-4-pyrimidinyl)-1,3-benzothiazol-2-yl)acetamide] are 2380 nM and more than 40000 nM.
